We go through one compound from patent US8822541B2, “Use of targeted nitroxide agents in mitigating or treating radiation injury” (University of Pittsburgh—Of the Commonwealth System of …, priority 2008, dated 2014).

For data set [1], the system named is 32D cl 3 cells. Put plainly: EPR-based analysis of nitroxide distribution and partitioning in subcellular fractions. In kind it is cell-based, mouse. To be noted: flask or pelleted, 10 μM, 1 h. The procedure: To determine nitroxide partitioning and distribution in subcellular compartments, electron paramagnetic resonance (EPR) was utilized. 32D cl 3 cells were incubated for 24 h under pelleted or flask growth conditions. After incubation, 150×10^6 cells were resuspended at a concentration of 10×10^6 cells/mL and were treated with 10 μM JP4-039 or 10 μM TEMPO for 1 h (Wipf P, et al., Mitochondrial targeting of selective electron scavengers: synthesis and biological analysis of hemigramicidin-TEMPO conjugates. J Am Chem. Soc. 127: 12460-12461, 2005).
Subcellular compartments were isolated by differential centrifugation. Cells were centrifuged at 1500 RPM for 10 min and the supernatant (media) was removed. The remaining whole cell pellet was washed with cold PBS, resuspended in 0.3 mL of hypotonic buffer solution, and incubated on ice for 45 min. Cells were then lysed by three rapid freeze-thaw cycles in liquid nitrogen for 30 sec and water at 25° C. for 3 min. Lysed cells were centrifuged at 3000×g for 5 min to isolate nucleus and cellular debris. Supernatant was centrifuged at 12000×g for 45 min to isolate mitochondria from cytoplasm (Wipf P, et al., Mitochondrial targeting of selective electron scavengers: synthesis and biological analysis of hemigramicidin-TEMPO conjugates. J Am Chem. Soc. 127: 12460-12461, 2005).
Each cellular fraction (media, whole cell pellet, nucleus/cellular debris, mitochondria, and cytoplasm) was mixed with DMSO (1:1 vol/vol) and 2 mM of potassium ferricyanide (K3Fe(CN)6) to convert […] to EPR-detectable radical forms (Behringer W, et al., Antioxidant Tempol enhances hypothermic cerebral preservation during prolonged cardiac arrest in dogs. J Cereb Blood Flow Metab. 22: 105-117, 2002). 70 μL of the homogenate was loaded into Teflon tubing (0.8 mm internal diameter) (Alpha Wire Corp., Elizabeth, N.J.) which was folded in half and placed into an open ESR quartz tube (inner diameter of 3.0 mm). EPR measurements were made in triplicate using a JEOL-RE1X EPR spectrometer (Jeol, Tokyo, Japan) under the following conditions: 334.7 mT center field, 5 mT sweep width, 0.079 mT field modulation, 20 mW microwave power, 0.1 sec time constant, and 2 min scan time at 22.5° C. Utilizing signal magnitude and isolated volumes, amount and concentration of JP4-039 or TEMPO were calculated for each sample.

Data set [2] deals with 32D cl 3 cells. The data set can be described thus: Clonogenic radiation survival curves of 32D cl 3 cells (PLDR study). In kind it is cell-based, mouse. Details: key to D0: D0 in Gy, from single-hit multitarget model. As for the experimental part: 32D cl 3 cells were resuspended at 1×10^5 cells/mL in 10×100-mm tubes and divided into three groups: radiation only, post-irradiation treatment with 10 μM JP4-039, and post-irradiation treatment with 10 μM TEMPO. Cells were irradiated to doses ranging from 0 to 8 Gy and were plated immediately after irradiation.
32D cl 3 cells were resuspended at 5×10^5 cells/mL in 10×100-mm tubes and divided into three groups: radiation only, post-irradiation treatment with 10 μM JP4-039, and post-irradiation treatment with 10 μM TEMPO. Cells were irradiated to doses ranging from 0 to 8 Gy and were then incubated in exponentially growing colonies (flasks) for 24, 48 and 72 h in a high-humidity incubator at 37° C. with 95% air/5% CO2.
32D cl 3 cells were resuspended at 5×10^5 cells/mL in 10×100-mm tubes. Cells were irradiated to doses ranging from 0 to 8 Gy and were then centrifuged at 1500 RPM for 10 minutes and incubated in vertical tubes held tight in pellets with a total of 5×10^5 cells/pellet for 24, 48 and 72 h in a high-humidity incubator at 37° C. with 95% air/5% CO2.
Cells incubated under either logarithmic or PLDR conditions were resuspended at 24, 48 and 72 h after irradiation, and cell viability was assessed using an automated cell viability counter (Beckman Coulter, Fullerton, Calif.). Subsequently, at 24, 48, 72 h, cells in pellets and flasks were resuspended and treated with 10 μM JP4-039, 10 μM TEMPO, or no treatment and were plated in triplicate in semisolid methylcellulose-containing medium at viable cell concentrations ranging from 500-40,000 cells/mL. Cells were incubated in a high-humidity incubator at 37° C. with 95% air/5% CO2 for 7 d and colonies of greater than 50 cells were scored according to published methods (Epperly M W, Gretton J E, Sikora C A, Jefferson M, Bernarding M, Nie S, et al.: Mitochondrial localization of superoxide, dismutase is required for decreasing radiation-induced cellular damage. Radiat Res. 160: 568-578, 2003).
Data from radiation survival curves were analyzed using the linear-quadratic and single-hit, multitarget models (Epperly M, et al., Prevention of late effects of irradiation lung damage by manganese superoxide dismutase gene therapy. Gene Ther. 5: 196-208, 1998). Results are presented as the mean±standard error of the mean from at least three measurements. Student's t test and two-way ANOVA were used to compare means of different groups where appropriate.

In data set [3] the test system is Ercc1−/Δ mice. The following applies: parental compound, comparison statement; cited from earlier work.
The mark [4] stands for this setting: 0 hours, 10 μM post-irradiation.

Consider `CC1(C)CCCC(C)(C)N1[O]` [TEMPO, 2,2,6,6-tetramethylpiperidine-N-oxyl, reference compound], for which the “nitroxide signal in whole cell pellet and subcellular fractions” value in data set [1] was “below the detectable threshold”. In addition, the D0 was found to be 1.04 ± 0.07 in data set [2] (setting [4]); 1.26 ± 0.11 in data set [2] (24 hours (Flask), 10 μM); 1.13 ± 0.19 in data set [2] (24 hours (Pellet), 10 μM). Further, the Ñ in data set [2] (setting [4]) came to 8.23±4.35; in data set [2] (24 hours (Flask), 10 μM) it was 8.86 ± 6.69; in data set [2] (24 hours (Pellet), 10 μM), 7.59±1.71. In data set [2] (48 or 72 h after irradiation), the radiation mitigation entry was “no statistically significant radiation mitigation”. The body weight entry in data set [3] is given as “cause weight loss”.
